Results reported in publication PMC3390344, “Antibacterial Activity and Mechanism of a Scorpion Venom Peptide Derivative In Vitro and In Vivo” (PLoS ONE, 2012).
Ends that are not written are not given here.

How the values were obtained:
S. aureus AB94004 [1] = format: cell-based; conditions: for MIC S.aureus, substance alone: controls of the competition assay (Figure 7C): untreated peptide, or LTA / LPS alone
Description: To confirm the results of the BLI titrations, 250 µg/mL of Kn2-7 or BmKn2 was mixed with an equal volume of 1 mg/mL LTA or LPS. Then, the MICs of Kn2-7 or BmKn2 mixed with LTA against S. aureus and E. coli were measured. […] The MICs of Kn2-7 and BmKn2 treated with LTA against S. aureus were 25 and 12.5 µg/mL, respectively.
A total of 250 µg/mL of each peptide solution was mixed with an equal volume of 1 mg/mL of the LTA or LPS solution. Then, the MICs of BmKn2 and Kn2-7 treated with LTA or LPS against S. aureus AB94004 and E. coli AB94012 were measured.

E. coli AB94012 [2] = assay: Growth inhibitory assay (growth curves); format: cell-based; conditions: at a concentration of 6.25 µg/mL; Figure 2C
Description: (§1) Figure 2 Gowth inhibitory activities of Kn2-7. (A) Growth curves of S. aureus AB94004 treated with Kn2-7, BmKn2 or antibiotics. (B) Growth curves of MRSA P1386 treated with Kn2-7, BmKn2 or antibiotics. (C) Growth curves of E. coli AB94012 treated with Kn2-7, BmKn2 or antibiotics.
(§2) The time growth curves of S. aureus and MRSA treated with BmKn2 or its derivatives were determined based on measurements taken at 630 nm at each time point. Different concentrations of peptide were added to the tested strains, which were cultured in 96-well plates using the same method as was used for determining the MIC.

S. aureus AB94004 [3] = assay: Growth inhibitory assay (growth curves); format: cell-based; conditions: at a concentration of MICs; measurements at 630 nm, 96-well plates; Figure 2A
Description: as §1, §2

MRSA P1386 = assay: Growth inhibitory assay (growth curves); format: cell-based, S. aureus; conditions: measurements at 630 nm, 96-well plates; Figure 2B
Description: as §1, §2

Biolayer interferometry = format: binding, S. aureus; conditions: 10 µg/mL biotinylated peptide on biosensor tips, 500 µg/mL LTA, 10 mM HEPES pH 7.4, 0.14 M NaCl, 30°C
Description: Figure 7 Binding assay of Kn2-7 and LTA or LPS. (A) Interaction of 10 µg/ml of Kn2-7 with 500 µg/ml of LPS or 500 µg/mL of LTA. Curve A3 is LPS, curve B3 is LTA and curve C3 is buffer. (B) Interaction of 10 µg/mL of BmKn2 with 500 µg/mL of LPS or 500 µg/mL of LTA. Curve D3 is LPS, curve E3 is LTA and curve F3 is the buffer. (C) MICs of Kn2-7 and BmKn2 treated with LTA or LPS against S. aureus and E. coli.
Biolayer Interferometry (BLI) experiments were performed on OCT RED (FortéBio, Inc.). A total of 500 µg/mL of lipoteichoic acid from S. aureus (LTA, Sigma, L2515), lipopolysaccharides from E. coli (LPS, Sigma, L2880) or buffer (10 mM HEPES, pH 7.4 and 0.14 M NaCl) was dispensed into 96-well microtiter plates at a volume of 200 µl per well. The operating temperature was 30°C. Biosensor tips (FortéBio, Inc., Menlo Park, CA) were pre-wetted with the buffer for 60 seconds at baseline. Then, 10 µg/mL Biotin-Kn2-7 or Biotin-BmKn2 was loaded onto the biosensor tips for 900 seconds. Baseline 2 was subsequently established for 300 seconds. Dissociation of Kn2-7 or BmKn2 occurred for 900 seconds in the buffer. Data were generated automatically by the Octet® User Software (version 3.1) and were subsequently analyzed from the resultant text files using Excel 2000.

E. coli AB94012 [4] = assay: Enzyme release assay (catalase); format: cell-based; conditions: E. coli AB94012, 37°C; 0.9% saline negative control; Figure 4D
Description: (§3) Figure 4 Secondary structure and enzyme release assay of Kn2-7. (A) and (B) Secondary structure analysis of the Kn2-7 and BmKn2 peptides. (A) Circular dichroism spectra of 0.1 mg/mL of Kn2-7 in water, 30% TFE/H2O or 70% TFE/H2O. (B) Circular dichroism spectra of 0.1 mg/mL of BmKn2 in water, 30% TFE/H2O or 70% TFE/H2O. (C) and (D) Enzyme release assay. (C) S. aureus AB94004 treated with Kn2-7 or BmKn2 was harvested, and the catalase activities of the supernatants were measured; 0.9% saline was used as the negative control, and ampicillin sodium was used as the antibiotic control. (D) E. coli AB94012 treated with Kn2-7 or BmKn2 was harvested, and the catalase activities in the supernatants were measured; 0.9% saline was used as the negative control, and kanamycin was used as the antibiotic control.
(§4) Bacterial suspensions and serial-diluted peptides were mixed at a ratio of 4∶1 in different tubes with a final volume of 2 ml. The mixtures were then incubated at 37°C with continuous shaking. At each time point, 200 µl of the treated bacterial suspension was transferred to sterilized tubes. After centrifugation, the supernatants were transferred to a sterilized 1.5-ml tube, and catalase activity was measured with a Catalase Assay Kit (Beyotime, Jiangsu, China) using the method for measuring peroxidase activity.

S. aureus AB94004 [5] = assay: Enzyme release assay (catalase); format: cell-based; conditions: S. aureus AB94004, 37°C; 0.9% saline negative control; Figure 4C
Description: as §3, §4

E. coli AB94012 [6] = assay: Bactericidal assay (time-killing); format: cell-based; conditions: samples at 0, 5, 15, 30, 60 min, colony counts, average of three dishes
Description: Figure 5 Bactericidal assays of the Kn2-7 and BmKn2 peptides against S. aureus and E. coli AB94012. Set point indicates untreated bacteria, and 0 minutes was defined as the time of the first sample collection, which was immediately after mixing bacteria and Kn2-7 or BmKn2. The other samples were collected at 5 min, 15 min, 30 min or 60 min. All of the counts were the average of three dishes, and the experiment was repeated at least three times. (A) Time-killing curve of Kn2-7 against S. aureus AB94004. (B) Time-killing curve of BmKn2 against S. aureus AB94004. (C) Time-killing curve of Kn2-7 against E. coli AB94012.
Bactericidal curves for Kn2-7 and BmKn2 were determined against S. aureus AB94004 and E. coli AB94012. A 400 µl aliquot of the peptide solution was added to 1,600 µl of a bacterial suspension. At each time point, 200 µl of the treated bacterial suspension was transferred to a sterilized 1.5-ml tube. After centrifugation at 1,000×g for 5 min, the supernatant was removed, and the pellet was resuspended in 200 µl of LB medium. The bacterial suspensions were placed on agar plates and incubated at 37°C until viable colonies could be counted.

Substance | MIC S.aureus, peptide treated with LPS (S. aureus AB94004 [1]; 250 µg/mL peptide mixed with equal volume of 1 mg/mL LPS) [µg/mL] | MIC S.aureus, peptide treated with LTA (S. aureus AB94004 [1]; 250 µg/mL peptide mixed with equal volume of 1 mg/mL LTA) [µg/mL] | MIC S.aureus, substance alone (S. aureus AB94004 [1]) [µg/mL] | Growth inhibition of E. coli AB94012 (growth curve) (E. coli AB94012 [2]) | Growth inhibition of S. aureus (growth curve) (S. aureus AB94004 [3]) | Growth inhibition of MRSA P1386 (growth curve) (MRSA P1386) | Binding to LTA (BLI) (Biolayer interferometry) | Catalase activity of the supernatant over time (E. coli AB94012 [4]) | Catalase activity of the supernatant over time (S. aureus AB94004 [5]) | Bactericidal effect (time-killing curve) (E. coli AB94012 [6])
FIGAIARLLSKIF-NH2 [BmKn2] | 6.25 | 12.5 | 6.25 | had no effect against E. coli AB94012 | inhibited the growth of S. aureus completely | inhibited the growth of MRSA P1386 completely | bound strongly | low catalase activity at each time point | almost the same catalase activity at each time point | not able to kill E. coli AB94012
FIKRIARLLRKIF [Kn2-7] | – | – | 3.13 | inhibited the growth of E. coli AB94012 | inhibited the growth of S. aureus completely | inhibited the growth of MRSA P1386 completely | bound strongly | nearly the same high enzymatic activity at each time point | almost the same catalase activity at each time point | able to kill E. coli AB94012 rapidly
